Source: PubChem BioAssay AID256 (DTP/NCI, 2004)
Toxic doses and inconclusive results are not listed. The calls were made as follows: active = survival T/C of 150% or more; inactive = T/C below 125% in these data.

Tested on: CD2F1 mice, L1210 leukemia ip, survival T/C
Experiment: NCI In Vivo Anticancer Drug Screen. Data for tumor model L1210 Leukemia (intraperitoneal) in CD2F1 (CDF1) mice
Conditions: endpoint: mean survival time, higher = longer survival
Summary of the method: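 Each value reflects a quotient of treated over vehicle control outcomes in mice with a transplanted tumor.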

Measured: T/C

COC(=O)C(N)CCCCNc1ccc2c(cc1=O)C(NC(C)=O)CCc1cc(OC)c(OC)c(OC)c1-2 (centres undefined)
inactive: dose: 3.1 mg/kg/injection, schedule: Q03HX008 (ip), vehicle: saline 105 % of control | dose: 3.1 mg/kg/injection, schedule: Q03HX016 (ip), vehicle: saline 91 % of control | dose: 3.1 mg/kg/injection, schedule: Q03HX024 (ip), vehicle: saline 96 % of control | dose: 6.3 mg/kg/injection, schedule: Q03HX008 (ip), vehicle: saline 92 % of control | dose: 6.3 mg/kg/injection, schedule: Q03HX016 (ip), vehicle: saline 103 % of control | dose: 6.3 mg/kg/injection, schedule: Q03HX024 (ip), vehicle: saline 102 % of control | dose: 12.5 mg/kg/injection, schedule: Q01DX009 (ip), vehicle: saline 91 % of control | dose: 12.5 mg/kg/injection, schedule: Q01DX009 (sc), vehicle: saline 88 % of control | dose: 12.5 mg/kg/injection, schedule: Q03HX008 (ip), vehicle: saline 97 % of control | dose: 12.5 mg/kg/injection, schedule: Q03HX016 (ip), vehicle: saline 97 % of control | dose: 12.5 mg/kg/injection, schedule: Q03HX024 (ip), vehicle: saline 107 % of control | dose: 25.0 mg/kg/injection, schedule: Q01DX001 (ip), vehicle: saline 102 % of control | dose: 25.0 mg/kg/injection, schedule: Q01DX001 (oral), vehicle: saline 100 % of control | dose: 25.0 mg/kg/injection, schedule: Q01DX001 (sc), vehicle: saline 88 % of control | dose: 25.0 mg/kg/injection, schedule: Q01DX009 (ip), vehicle: saline 100 % of control | dose: 25.0 mg/kg/injection, schedule: Q01DX009 (oral), vehicle: saline 96 % of control | dose: 25.0 mg/kg/injection, schedule: Q01DX009 (sc), vehicle: saline 91 % of control | dose: 25.0 mg/kg/injection, schedule: Q03HX008 (ip), vehicle: saline 105 % of control | dose: 25.0 mg/kg/injection, schedule: Q03HX016 (ip), vehicle: saline 94 % of control | dose: 25.0 mg/kg/injection, schedule: Q03HX024 (ip), vehicle: saline 108 % of control | dose: 25.0 mg/kg/injection, schedule: Q04DX003 (ip), vehicle: saline 100 % of control | dose: 25.0 mg/kg/injection, schedule: Q08DX002 (ip), vehicle: saline 91 % of control | dose: 50.0 mg/kg/injection, schedule: Q01DX001 (ip), vehicle: saline 94 % of control | dose: 50.0 mg/kg/injection, schedule: Q01DX001 (oral), vehicle: saline 94 % of control | dose: 50.0 mg/kg/injection, schedule: Q01DX001 (sc), vehicle: saline 92 % of control | dose: 50.0 mg/kg/injection, schedule: Q01DX009 (ip), vehicle: saline 103 % of control | dose: 50.0 mg/kg/injection, schedule: Q01DX009 (oral), vehicle: saline 91 % of control | dose: 50.0 mg/kg/injection, schedule: Q01DX009 (sc), vehicle: saline 91 % of control | dose: 50.0 mg/kg/injection, schedule: Q03HX008 (ip), vehicle: saline 107 % of control | dose: 50.0 mg/kg/injection, schedule: Q03HX016 (ip), vehicle: saline 97 % of control | dose: 50.0 mg/kg/injection, schedule: Q03HX024 (ip), vehicle: saline 111 % of control | dose: 50.0 mg/kg/injection, schedule: Q04DX003 (ip), vehicle: saline 92 % of control | dose: 50.0 mg/kg/injection, schedule: Q08DX002 (ip), vehicle: saline 103 % of control | dose: 53.0 mg/kg/injection, schedule: Q01DX005 (ip), vehicle: saline 108 % of control | dose: 53.0 mg/kg/injection, schedule: Q01DX009 (ip), vehicle: saline 107 % of control | dose: 53.0 mg/kg/injection, schedule: Q04DX003 (ip), vehicle: saline 87 % of control | dose: 80.0 mg/kg/injection, schedule: Q01DX005 (ip), vehicle: saline 114 % of control | dose: 80.0 mg/kg/injection, schedule: Q01DX009 (ip), vehicle: saline 110 % of control | dose: 80.0 mg/kg/injection, schedule: Q04DX003 (ip), vehicle: saline 87 % of control | dose: 100.0 mg/kg/injection, schedule: Q01DX001 (ip), vehicle: saline with Tween-80 106 % of control | dose: 100.0 mg/kg/injection, schedule: Q01DX001 (ip), vehicle: saline 88 % of control | dose: 100.0 mg/kg/injection, schedule: Q01DX001 (oral), vehicle: saline 96 % of control | dose: 100.0 mg/kg/injection, schedule: Q01DX001 (sc), vehicle: saline 92 % of control | dose: 100.0 mg/kg/injection, schedule: Q01DX009 (ip), vehicle: saline 114 % of control | dose: 100.0 mg/kg/injection, schedule: Q01DX009 (oral), vehicle: saline 91 % of control | dose: 100.0 mg/kg/injection, schedule: Q01DX009 (sc), vehicle: saline 92 % of control | dose: 100.0 mg/kg/injection, schedule: Q04DX002 (ip), vehicle: saline 108 % of control | dose: 100.0 mg/kg/injection, schedule: Q04DX003 (ip), vehicle: saline 91 % of control | dose: 100.0 mg/kg/injection, schedule: Q08DX002 (ip), vehicle: saline 100 % of control | dose: 120.0 mg/kg/injection, schedule: Q01DX005 (ip), vehicle: saline 118 % of control | dose: 120.0 mg/kg/injection, schedule: Q01DX009 (ip), vehicle: saline 114 % of control | dose: 120.0 mg/kg/injection, schedule: Q04DX003 (ip), vehicle: saline 98 % of control | dose: 180.0 mg/kg/injection, schedule: Q01DX005 (ip), vehicle: saline 118 % of control | dose: 180.0 mg/kg/injection, schedule: Q01DX009 (ip), vehicle: saline 105 % of control | dose: 180.0 mg/kg/injection, schedule: Q04DX003 (ip), vehicle: saline 96 % of control | dose: 200.0 mg/kg/injection, schedule: Q01DX001 (ip), vehicle: saline with Tween-80 106 % of control | dose: 200.0 mg/kg/injection, schedule: Q01DX001 (ip), vehicle: saline 97 % of control | dose: 200.0 mg/kg/injection, schedule: Q01DX001 (oral), vehicle: saline 94 % of control | dose: 200.0 mg/kg/injection, schedule: Q01DX001 (sc), vehicle: saline 97 % of control | dose: 200.0 mg/kg/injection, schedule: Q01DX009 (ip), vehicle: saline 118 % of control | dose: 200.0 mg/kg/injection, schedule: Q01DX009 (oral), vehicle: saline 96 % of control | dose: 200.0 mg/kg/injection, schedule: Q01DX009 (sc), vehicle: saline 94 % of control | dose: 200.0 mg/kg/injection, schedule: Q04DX002 (ip), vehicle: saline 104 % of control | dose: 200.0 mg/kg/injection, schedule: Q04DX003 (ip), vehicle: saline 103 % of control | dose: 200.0 mg/kg/injection, schedule: Q08DX002 (ip), vehicle: saline 111 % of control | dose: 270.0 mg/kg/injection, schedule: Q01DX005 (ip), vehicle: saline 90 % of control | dose: 270.0 mg/kg/injection, schedule: Q04DX003 (ip), vehicle: saline 98 % of control | dose: 400.0 mg/kg/injection, schedule: Q01DX001 (ip), vehicle: saline with Tween-80 107 % of control | dose: 400.0 mg/kg/injection, schedule: Q01DX001 (ip), vehicle: saline 108 % of control | dose: 400.0 mg/kg/injection, schedule: Q01DX001 (oral), vehicle: saline 96 % of control | dose: 400.0 mg/kg/injection, schedule: Q01DX001 (sc), vehicle: saline 100 % of control | dose: 400.0 mg/kg/injection, schedule: Q04DX003 (ip), vehicle: saline 113 % of control | dose: 400.0 mg/kg/injection, schedule: Q08DX002 (ip), vehicle: saline 113 % of control | dose: 800.0 mg/kg/injection, schedule: Q01DX001 (oral), vehicle: saline 94 % of control
